# Where a name gives a salt, the structure may show the parent alone.
# What was measured:
# [1] = test system: atopic dermatitis patients; conditions: cited from earlier work
# [2] = molecular target: T1, PDE4B (human recombinant) (Homo sapiens, UniProt Q07343); experiment: Inhibition of PDE4B activity: IMAP Fluorescence Polarisation (FP) assay; assay type: biochemical; conditions: FP assay or generally similar assay; each limit ±about 0.5; n=1 or average of 2 or more readings; read-out: PDE4B inhibitory activities, pIC50 (converted)
# T1 construct: made in house; host or cells: Saccharomyces cerevisiae strain GL62 (named as a possible source, as described in WO 94/20079)
# T1 sequence (Q07343 1-564 isoform Q07343-2): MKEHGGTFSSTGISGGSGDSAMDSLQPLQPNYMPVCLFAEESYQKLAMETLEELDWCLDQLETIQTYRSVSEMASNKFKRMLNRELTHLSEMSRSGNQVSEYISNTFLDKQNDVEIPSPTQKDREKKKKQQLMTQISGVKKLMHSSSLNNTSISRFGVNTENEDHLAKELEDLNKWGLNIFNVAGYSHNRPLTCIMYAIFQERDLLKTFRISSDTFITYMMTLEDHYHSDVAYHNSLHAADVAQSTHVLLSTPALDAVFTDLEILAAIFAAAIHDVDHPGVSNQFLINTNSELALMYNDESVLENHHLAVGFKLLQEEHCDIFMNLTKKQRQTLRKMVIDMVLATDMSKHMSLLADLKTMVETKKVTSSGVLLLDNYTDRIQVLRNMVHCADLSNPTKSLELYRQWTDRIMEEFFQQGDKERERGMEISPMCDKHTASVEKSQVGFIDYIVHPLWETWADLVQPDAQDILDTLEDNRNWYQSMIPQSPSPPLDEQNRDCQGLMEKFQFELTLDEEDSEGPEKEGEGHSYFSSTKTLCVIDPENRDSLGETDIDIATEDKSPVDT
# Description: The ability of compounds to inhibit catalytic activity at PDE4B (human recombinant) or PDE4D (human recombinant) can optionally be determined by IMAP Fluorescence Polarisation (FP) assay (IMAP Explorer kit, available from Molecular Devices Corporation, Sunnydale, Calif., USA; Molecular Devices code: R8062) in 384-well format.
# The IMAP FP assay is able to measure PDE activity in an homogenous, non-radioactive assay format. The FP assay uses the ability of immobilised trivalent metal cations, coated onto nanoparticles (tiny beads), to bind the phosphate group of Fl-AMP that is produced on the hydrolysis of fluorescein-labelled (Fl) cyclic adenosine mono-phosphate (Fl-cAMP) to the non-cyclic Fl-AMP form. […] Binding of Fl-AMP product to the beads (coated with the immobilised trivalent cations) slows the rotation of the bound Fl-AMP and leads to an increase in the fluorescence polarisation ratio of parallel to perpendicular light. Inhibition of the PDE reduces/inhibits this signal increase.
# Test compounds (small volume, e.g. ca. 0.5 to 1 microlitres (ul), suitably ca. 0.5 ul, of solution in DMSO) are preincubated at ambient temperature (room temperature, e.g. 19-23° C.) in black 384-well microtitre plates (supplier: NUNC, code 262260) with PDE enzyme in 10 mM Tris-HCl buffer pH 7.2, 10 mM MgCl2, 0.1% (w/v) bovine serum albumin, and 0.05% NaN3 for 10-30 minutes. The enzyme level is set by experimentation so that reaction is linear throughout the incubation. Fluorescein adenosine 3′,5′-cyclic phosphate (from Molecular Devices Corporation, Molecular Devices code: R7091) is added to give about 40 nM final concentration (final assay volume usually ca. 20-40 ul, suitably ca. 20 ul). Plates are mixed on an orbital shaker for 10 seconds and incubated at ambient temperature for 40 minutes. IMAP binding reagent (as described above, from Molecular Devices Corporation, Molecular Devices code: R7207) is added (60 ul of a 1 in 400 dilution in binding buffer of the kit stock solution) to terminate the assay. Plates are allowed to stand at ambient temperature for 1 hour. The Fluorescence Polarisation (FP) ratio of parallel to perpendicular light is measured using an Analyst™ plate reader (from Molecular Devices Corporation). For inhibition curves, 10 concentrations (e.g. 1.5 nM-30 uM) of each compound are assayed. Curves are analysed using ActivityBase and XLfit (ID Business Solutions Limited, 2 Ocean Court, Surrey Research Park, Guildford, Surrey GU2 7QB, United Kingdom). Results are expressed as pIC50 values.
# In the FP assay, reagents can be dispensed using Multidrop™ (available from Thermo Labsystems Oy, Ratastie 2, PO Box 100, Vantaa 01620, Finland).
# [3] = test system: COPD patients; conditions: cited from earlier work
smiles,measurement,setting,value
"COc1ccc(C2CNC(=O)NC2)cc1O[C@H]1C[C@@H]2CC[C@H]1C2 [CP80,633]",inflammatory parameters in atopic dermatitis patients,"[1]; 0.5% ointment, twice daily topical application",reductions of inflammatory parameters
"CCc1nc2c(cnn2CC)c(NC2CCN(C(N)=O)CC2)c1CNC(=O)CCCCCCCN1CCC[C@@H]1COC [Example 7, 4-[(1,6-diethyl-5-{[(8-{(2R)-2-[(methyloxy)methyl]-1-pyrrolidinyl}octanoyl)amino]methyl}-1H-pyrazolo[3,4-b]pyridin-4-yl)amino]-1-piperidinecarboxamide trifluoroacetate]",IC50,[2],0.2 to 1.58 nM
"CCc1nc2c(cnn2CC)c(NC2CCN(C(N)=O)CC2)c1CNC(=O)CCCCCCCN1CCC[C@H]1COC [Example 8, 4-[(1,6-diethyl-5-{[(8-{(2S)-2-[(methyloxy)methyl]-1-pyrrolidinyl}octanoyl)amino]methyl}-1H-pyrazolo[3,4-b]pyridin-4-yl)amino]-1-piperidinecarboxamide trifluoroacetate]",IC50,[2],0.2 to 1.58 nM
"CCc1nc2c(cnn2CC)c(NC2CCOCC2)c1CNC(=O)CCCCCCCN1CCC[C@@H]1COC [Example 15, N-{[1,6-diethyl-4-(tetrahydro-2H-pyran-4-ylamino)-1H-pyrazolo[3,4-b]pyridin-5-yl]methyl}-8-{(2R)-2-[(methyloxy)methyl]-1-pyrrolidinyl}octanamide trifluoroacetate]",IC50,[2],0.2 to 1.58 nM
"CCc1nc2c(cnn2CC)c(NC2CCOCC2)c1CNC(=O)CCCCCCCN1CCC[C@H]1COC [Example 16, N-{[1,6-diethyl-4-(tetrahydro-2H-pyran-4-ylamino)-1H-pyrazolo[3,4-b]pyridin-5-yl]methyl}-8-{(2S)-2-[(methyloxy)methyl]-1-pyrrolidinyl}octanamide trifluoroacetate]",IC50,[2],0.2 to 1.58 nM
COc1ccc([C@]2(C#N)CC[C@@H](C(=O)O)CC2)cc1OC1CCCC1 [cilomilast],forced expiratory volume in 1s (FEV1),[3]; 15 mg orally twice daily,appears to improve forced expiratory volume in 1s (FEV1)
same,antiinflammatory effects in COPD patients,[3],appears to have antiinflammatory effects
Nc1nc2c([nH]1)c(=O)n(CC1CC1)c(=O)n2CC1CC1 [cipamfylline],efficacy in the treatment of atopic dermatitis patients versus hydrocortisone 17-butyrate (0.1%) cream,[1]; 0.15% cream,significantly less effective than hydrocortisone 17-butyrate (0.1%) cream
same,efficacy in the treatment of atopic dermatitis patients versus vehicle,[1]; 0.15% cream,significantly more effective than vehicle
O=C(Nc1c(Cl)cncc1Cl)c1ccc(OC(F)F)c(OCC2CC2)c1 [roflumilast],FEV1 in COPD patients,[3],appears to show small improvements in FEV1
